Measured values from patent publication US11311520B2, “Substituted dihydroimidazopyridinediones as MKNK1 and MKNK2 inhibitors” (Bayer Pharma Aktiengesellschaft, priority 2017, dated 2022).

Target: human full-length MKNK1 (Homo sapiens (Human), UniProt Q9BUB5, T344D)
Experiment: MKNK1 kinase high ATP assay (TR-FRET)
Format: biochemical
Details: 2 mM ATP, 15 min preincubation with enzyme, GST-MKNK1 (T344D)
Summary of the method: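 GST-tagged full-length human MKNK1 (1-424, T344D, baculovirus-expressed) preincubated 15 min at 22 °C with compound, then reacted 30 min at 22 °C with 2 mM ATP and 0.06 μM biotinylated peptide (final) in HEPES pH 7.5. Phospho-substrate by TR-FRET (665/622 nm ratio), normalised to no-inhibitor and no-enzyme controls.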

human full-length MKNK1, sequence (Q9BUB5 other isoform, or with tags, fused parts or gaps T344D): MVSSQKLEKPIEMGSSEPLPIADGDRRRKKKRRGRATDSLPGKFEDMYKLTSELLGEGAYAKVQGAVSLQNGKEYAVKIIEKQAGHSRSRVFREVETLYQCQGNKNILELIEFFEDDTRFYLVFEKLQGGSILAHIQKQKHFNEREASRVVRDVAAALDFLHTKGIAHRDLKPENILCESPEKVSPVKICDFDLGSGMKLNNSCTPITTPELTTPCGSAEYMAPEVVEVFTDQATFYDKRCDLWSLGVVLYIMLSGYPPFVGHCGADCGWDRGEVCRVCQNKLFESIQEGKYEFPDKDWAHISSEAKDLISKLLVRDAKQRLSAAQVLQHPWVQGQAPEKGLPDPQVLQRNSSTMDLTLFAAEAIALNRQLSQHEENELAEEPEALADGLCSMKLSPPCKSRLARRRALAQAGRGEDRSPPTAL

SMILES | IC50 [nM]
Cc1cc(Nc2ncnc3ccc(F)cc23)c(=O)n2c1C(=O)N[C@]21CC[C@@](O)(C(F)(F)C(F)(F)F)CC1 [Example 192, (cis)-6′-[(6-fluoroquinazolin-4-yl)amino]-4-hydroxy-8′-methyl-4-(pentafluoroethyl)-2′H-spiro[cyclohexane-1,3′-imidazo[1,5-a]pyridine]-1′,5′-dione] | 281
Cc1cc(Nc2ncnc3sccc23)c(=O)n2c1C(=O)N[C@]21CC[C@@](O)(C(F)(F)C(F)(F)F)CC1 [Example 193, (cis)-4-hydroxy-8′-methyl-4-(pentafluoroethyl)-6′-[(thieno[2,3-d]pyrimidin-4-yl)amino]-2′H-spiro[cyclohexane-1,3′-imidazo[1,5-a]pyridine]-1′,5′-dione] | 29.8
Cc1cc(Nc2ncnc3[nH]ccc23)c(=O)n2c1C(=O)N[C@]21CC[C@@](O)(C(F)(F)C(F)(F)F)CC1 [Example 194, (cis)-4-hydroxy-8′-methyl-4-(pentafluoroethyl)-6′-[(7H-pyrrolo[2,3-d]pyrimidin-4-yl)amino]-2′H-spiro[cyclohexane-1,3′-imidazo[1,5-a]pyridine]-1′,5′-dione] | 12.2
Cc1cc(Nc2ncnc3ccc(Cl)cc23)c(=O)n2c1C(=O)N[C@]21CC[C@@](O)(C(F)(F)C(F)(F)F)CC1 [Example 195, (cis)-6′-[(6-chloroquinazolin-4-yl)amino]-4-hydroxy-8′-methyl-4-(pentafluoroethyl)-2′H-spiro[cyclohexane-1,3′-imidazo[1,5-a]pyridine]-1′,5′-dione] | 342
Cc1cc(Nc2ncnc3[nH]ccc23)c(=O)n2c1C(=O)NC21CCSCC1 [Example 196, 8-methyl-6-(7H-pyrrolo[2,3-d]pyrimidin-4-ylamino)-2′,3′,5′,6′-tetrahydro-2H-spiro[imidazo[1,5-a]pyridine-3,4′-thiopyran]-1,5-dione] | 0.5
Cc1cc(Nc2ncnc3ccc(Cl)cc23)c(=O)n2c1C(=O)NC21CCSCC1 [Example 197, 6-[(6-chloroquinazolin-4-yl)amino]-8-methyl-2′,3′,5′,6′-tetrahydro-2H-spiro[imidazo[1,5-a]pyridine-3,4′-thiopyran]-1,5-dione] | 14.9
Cc1cc(Nc2ncnc3[nH]ccc23)c(=O)n2c1C(=O)NC21CCS(=O)(=O)CC1 [Example 198, 8-methyl-6-(7H-pyrrolo[2,3-d]pyrimidin-4-ylamino)-2′,3′,5′,6′-tetrahydro-2H-spiro[imidazo[1,5-a]pyridine-3,4′-thiopyran]-1,5-dione 1′,1′-dioxide] | 1.1
Cc1cc(Nc2ncnc3ccc(Cl)cc23)c(=O)n2c1C(=O)NC21CCS(=O)(=O)CC1 [Example 199, 6-[(6-chloroquinazolin-4-yl)amino]-8-methyl-2′,3′,5′,6′-tetrahydro-2H-spiro[imidazo[1,5-a]pyridine-3,4′-thiopyran]-1,5-dione 1′,1′-dioxide] | 56.3
